This note sets out measurements from patent US20260317356A1, “SMALL MOLECULE MODULATORS OF OGG1” (AZKARRA THERAPEUTICS, INC., priority 2023, published 2026).

The structures appear in SMILES notation.

Sequence of hOGG1 (O15527 12-323): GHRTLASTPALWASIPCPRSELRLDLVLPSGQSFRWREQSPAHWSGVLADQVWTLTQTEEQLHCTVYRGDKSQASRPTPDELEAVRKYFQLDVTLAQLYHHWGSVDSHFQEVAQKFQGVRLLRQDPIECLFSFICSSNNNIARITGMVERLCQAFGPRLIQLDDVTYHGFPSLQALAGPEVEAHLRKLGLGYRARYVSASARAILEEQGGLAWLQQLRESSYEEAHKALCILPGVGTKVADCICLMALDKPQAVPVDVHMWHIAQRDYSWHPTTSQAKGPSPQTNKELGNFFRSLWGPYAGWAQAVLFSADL

The target of the assay is hOGG1 (Homo sapiens, UniProt O15527). Briefly: Biochemical fluorescence assay to measure enzymatic activity of hOGG1 (OGG1/APEX IC50). Set-up: Protein His-hOGG1 (12-323) was prepared; His (N); host or cells: E. coli. To be noted: 1 nM OGG1+2 nM APEX+6 nM dsDNA (8-oxo-dG substrate); pH 7.5; RT 40 min; read-out: OGG1/APEX IC50. In outline:
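His-hOGG1 (12-323, E. coli) at 1 nM with 2 nM hAPE1/APEX1, preincubated 20 min RT with compound. Then 6 nM 8-oxo-dG dsDNA substrate added, 40 min at RT in Tris pH 7.5, 100 mM KCl. TAMRA fluorescence (Ex520/Em600) converted to % inhibition vs controls; IC50 from 3-parameter fit of 10-point curve.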
Take `COc1cccc(NC(=O)[C@H]2CC[C@@H](N3Cc4c(C)cccc4C3=O)CC2)c1` [Example 245, (1s,4s)-N-(3-Methoxyphenyl)-4-(4-methyl-1-oxoisoindolin-2-yl)cyclohexanecarboxamide]: the IC50 was in the range of 1000 to 10000 nM.
Regarding `Cc1cccc2c1CN([C@H]1CC[C@@H](C(=O)Nc3ccc(=O)n(C)c3)CC1)C2=O` [Example 246, (1s,4s)-4-(4-Methyl-1-oxoisoindolin-2-yl)-N-(1-methyl-6-oxo-1,6-dihydropyridin-3-yl)cyclohexanecarboxamide], the IC50 was more than 10000 nM.
Take `Cc1cccc2c1CN([C@H]1CC[C@@H](C(=O)Nc3cccc(=O)[nH]3)CC1)C2=O` [Example 248, (1s,4s)-4-(4-Methyl-1-oxoisoindolin-2-yl)-N-(6-oxo-1,6-dihydropyridin-2-yl)cyclohexanecarboxamide]: the IC50 is more than 10000 nM.
Next, `COc1ccc(NC(=O)[C@H]2CC[C@@H](N3Cc4c(C)cccc4C3=O)CC2)cn1` [Example 249, (1s,4s)-N-(6-Methoxypyridin-3-yl)-4-(4-methyl-1-oxoisoindolin-2-yl)cyclohexanecarboxamide]: 1000 to 10000 nM.
For the compound `Cc1cccc2c1CN([C@H]1CC[C@@H](C(=O)Nc3cc[nH]c(=O)c3)CC1)C2=O` [Example 250, (1s,4s)-4-(4-methyl-1-oxoisoindolin-2-yl)-N-(2-oxo-1,2-dihydropyridin-4-yl)cyclohexanecarboxamide], the IC50 is more than 10000 nM.
For `Cc1cccc2c1CN([C@H]1CC[C@@H](C(=O)Nc3ccc(=O)[nH]c3)CC1)C2=O` [Example 251, (1s,4s)-4-(4-Methyl-1-oxoisoindolin-2-yl)-N-(6-oxo-1,6-dihydropyridin-3-yl)cyclohexanecarboxamide], the IC50 was more than 10000 nM.
Turning to `Cc1cccc2c1CN([C@H]1CC[C@@H](C(=O)Nc3ccn(C)c(=O)c3)CC1)C2=O` [Example 252, (1s,4s)-4-(4-Methyl-1-oxoisoindolin-2-yl)-N-(1-methyl-2-oxo-1,2-dihydropyridin-4-yl)cyclohexanecarboxamide], the IC50 is more than 10000 nM.
On to `COc1cc(NC(=O)[C@H]2CC[C@@H](N3C(=O)c4c(C)ccc(C)c4C3=O)CC2)ccc1C` [Example 253, (1s,4s)-4-(4,7-Dimethyl-1,3-dioxoisoindolin-2-yl)-N-(3-methoxy-4-methylphenyl)cyclohexanecarboxamide], for which the IC50 lay within 100 to 1000 nM.
`Cc1ccc(NC(=O)[C@H]2CC[C@@H](N3Cc4c(C)cccc4C3=O)CC2)cc1C#N` [Example 254, (1s,4s)-N-(3-Cyano-4-methylphenyl)-4-(4-methyl-1-oxoisoindolin-2-yl)cyclohexanecarboxamide]: the IC50 lay within 100 to 1000 nM.
For the compound `COc1ccc(NC(=O)[C@H]2CC[C@@H](N3Cc4c(C)cc(NCCN(C)C)cc4C3=O)CC2)cc1F` [Example 257, (1s,4s)-4-(6-(2-(Dimethylamino)ethylamino)-4-methyl-1-oxoisoindolin-2-yl)-N-(3-fluoro-4-methoxyphenyl)cyclohexanecarboxamide], the IC50 was less than 100 nM.
Next, `COc1cc(NC(=O)[C@H]2CC[C@@H](N3Cc4c(C)cccc4C3=O)CC2)ccc1C(F)(F)F` [Example 258, (1s,4s)-N-(3-Methoxy-4-(trifluoromethyl)phenyl)-4-(4-methyl-1-oxoisoindolin-2-yl)cyclohexanecarboxamide]: 100 to 1000 nM; `COc1cc(NC(=O)[C@H]2CC[C@@H](N3Cc4c(C)cc(OCCN5CCC5)cc4C3=O)CC2)ccc1C` [Example 261, (1s,4s)-4-(6-(2-(Azetidin-1-yl)ethoxy)-4-methyl-1-oxoisoindolin-2-yl)-N-(3-methoxy-4-methylphenyl)cyclohexanecarboxamide]: less than 100 nM.
In the case of `Cc1cccc2c1CN([C@H]1CC[C@@H](C(=O)Nc3ccc(Cl)c(C#N)c3)CC1)C2=O` [Example 263, (1s,4s)-N-(4-Chloro-3-cyanophenyl)-4-(4-methyl-1-oxoisoindolin-2-yl)cyclohexanecarboxamide], the IC50 lay within 100 to 1000 nM.
